Laboratory results from ChEMBL document CHEMBL4507260 (2021).

Experiments:
[1] = target: Muscarinic acetylcholine receptor M5 (Homo sapiens) (UniProt P08912); conditions: Compound concentration 10.0 uM
Description: M5 CEREP ligand profiling

[2] = target: Translocator protein (Rattus norvegicus) (UniProt P16257); conditions: Compound concentration 10.0 uM
Description: BZD (peripheral) CEREP ligand profiling

[3] = target: Endothelin-1 receptor (Homo sapiens) (UniProt P25101); conditions: Compound concentration 10.0 uM
Description: ETA CEREP ligand profiling

[4] = target: Bombesin receptor (Homo sapiens) (UniProt P28336+P32247+P30550); conditions: Compound concentration 10.0 uM
Bombesin receptor (Homo sapiens), sequence (P28336 whole entry, looked up): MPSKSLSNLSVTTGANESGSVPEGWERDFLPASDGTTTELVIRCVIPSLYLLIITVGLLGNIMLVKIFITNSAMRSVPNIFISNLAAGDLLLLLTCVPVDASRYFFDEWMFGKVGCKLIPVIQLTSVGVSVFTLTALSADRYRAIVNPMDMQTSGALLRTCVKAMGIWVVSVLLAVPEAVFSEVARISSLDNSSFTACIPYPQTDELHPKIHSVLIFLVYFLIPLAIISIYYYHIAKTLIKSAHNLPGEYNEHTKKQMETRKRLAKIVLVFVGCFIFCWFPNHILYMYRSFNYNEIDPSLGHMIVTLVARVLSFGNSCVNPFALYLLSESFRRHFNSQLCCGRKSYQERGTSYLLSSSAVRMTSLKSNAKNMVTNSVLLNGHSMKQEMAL
Bombesin receptor (Homo sapiens), sequence (P30550 whole entry, looked up): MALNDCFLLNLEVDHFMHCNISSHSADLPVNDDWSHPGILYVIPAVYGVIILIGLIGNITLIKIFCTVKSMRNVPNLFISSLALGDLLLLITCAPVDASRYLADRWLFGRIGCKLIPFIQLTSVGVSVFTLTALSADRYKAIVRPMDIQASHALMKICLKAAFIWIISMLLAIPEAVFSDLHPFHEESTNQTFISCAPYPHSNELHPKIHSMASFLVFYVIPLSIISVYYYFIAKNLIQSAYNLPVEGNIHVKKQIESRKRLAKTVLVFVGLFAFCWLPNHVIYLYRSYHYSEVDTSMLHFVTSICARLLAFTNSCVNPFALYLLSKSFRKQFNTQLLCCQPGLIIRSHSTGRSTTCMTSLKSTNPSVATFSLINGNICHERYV
Bombesin receptor (Homo sapiens), sequence (P32247 whole entry, looked up): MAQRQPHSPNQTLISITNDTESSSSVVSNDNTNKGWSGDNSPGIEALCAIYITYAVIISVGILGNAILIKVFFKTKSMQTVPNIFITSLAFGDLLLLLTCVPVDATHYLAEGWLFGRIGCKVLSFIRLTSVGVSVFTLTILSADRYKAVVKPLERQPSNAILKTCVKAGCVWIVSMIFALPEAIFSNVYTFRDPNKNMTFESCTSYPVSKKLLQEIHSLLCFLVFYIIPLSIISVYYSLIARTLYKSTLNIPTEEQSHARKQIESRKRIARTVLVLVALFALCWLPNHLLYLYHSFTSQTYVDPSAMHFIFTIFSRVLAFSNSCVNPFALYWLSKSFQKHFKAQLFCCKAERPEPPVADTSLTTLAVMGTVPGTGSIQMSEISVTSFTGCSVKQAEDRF
Description: Bombesin CEREP ligand profiling

[5] = target: Muscarinic acetylcholine receptor M3 (Homo sapiens) (UniProt P20309); conditions: Compound concentration 10.0 uM
Muscarinic acetylcholine receptor M3 (Homo sapiens), sequence (P20309 whole entry, looked up): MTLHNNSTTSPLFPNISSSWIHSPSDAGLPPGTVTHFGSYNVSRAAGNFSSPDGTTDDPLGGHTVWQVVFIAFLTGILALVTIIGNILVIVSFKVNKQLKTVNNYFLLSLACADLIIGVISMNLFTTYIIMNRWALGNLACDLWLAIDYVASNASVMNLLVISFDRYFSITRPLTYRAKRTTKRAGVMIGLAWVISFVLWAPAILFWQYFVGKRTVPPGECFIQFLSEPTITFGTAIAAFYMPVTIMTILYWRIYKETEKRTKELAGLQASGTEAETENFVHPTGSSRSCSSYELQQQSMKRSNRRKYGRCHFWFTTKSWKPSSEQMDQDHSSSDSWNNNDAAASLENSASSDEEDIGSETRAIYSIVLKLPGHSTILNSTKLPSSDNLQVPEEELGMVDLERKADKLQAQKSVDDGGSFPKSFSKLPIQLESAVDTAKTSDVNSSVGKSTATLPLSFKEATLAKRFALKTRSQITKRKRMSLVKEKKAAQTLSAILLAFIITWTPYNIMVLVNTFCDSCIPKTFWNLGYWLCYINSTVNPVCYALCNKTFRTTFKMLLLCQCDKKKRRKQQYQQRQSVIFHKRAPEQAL
Description: M3 CEREP ligand profiling

[6] = target: C-X-C chemokine receptor type 2 (Homo sapiens) (UniProt P25025); conditions: Compound concentration 10.0 uM
Description: IL-8B (CXCR2) CEREP ligand profiling

[7] = target: 5-hydroxytryptamine receptor 3A (Homo sapiens) (UniProt P46098); conditions: Compound concentration 10.0 uM
5-hydroxytryptamine receptor 3A (Homo sapiens), sequence (P46098 whole entry): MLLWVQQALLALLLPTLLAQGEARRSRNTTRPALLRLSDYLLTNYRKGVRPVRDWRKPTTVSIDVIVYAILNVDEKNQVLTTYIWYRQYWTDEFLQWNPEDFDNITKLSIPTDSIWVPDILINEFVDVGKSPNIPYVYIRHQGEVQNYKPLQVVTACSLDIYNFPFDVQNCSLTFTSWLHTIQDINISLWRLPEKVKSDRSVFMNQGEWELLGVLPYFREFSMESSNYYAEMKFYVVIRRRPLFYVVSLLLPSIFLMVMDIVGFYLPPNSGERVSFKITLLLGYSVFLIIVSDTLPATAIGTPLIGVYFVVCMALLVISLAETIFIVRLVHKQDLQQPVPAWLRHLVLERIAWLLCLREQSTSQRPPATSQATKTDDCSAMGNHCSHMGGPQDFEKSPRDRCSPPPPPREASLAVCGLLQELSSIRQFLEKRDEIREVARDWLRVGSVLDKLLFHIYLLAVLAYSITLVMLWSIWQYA
Description: 5-HT3 CEREP ligand profiling

[8] = target: Melatonin receptor type 1A (Homo sapiens) (UniProt P48039); assay: ML1 CEREP ligand profiling; conditions: Compound concentration 10.0 uM
Melatonin receptor type 1A (Homo sapiens), sequence (P48039 whole entry, looked up): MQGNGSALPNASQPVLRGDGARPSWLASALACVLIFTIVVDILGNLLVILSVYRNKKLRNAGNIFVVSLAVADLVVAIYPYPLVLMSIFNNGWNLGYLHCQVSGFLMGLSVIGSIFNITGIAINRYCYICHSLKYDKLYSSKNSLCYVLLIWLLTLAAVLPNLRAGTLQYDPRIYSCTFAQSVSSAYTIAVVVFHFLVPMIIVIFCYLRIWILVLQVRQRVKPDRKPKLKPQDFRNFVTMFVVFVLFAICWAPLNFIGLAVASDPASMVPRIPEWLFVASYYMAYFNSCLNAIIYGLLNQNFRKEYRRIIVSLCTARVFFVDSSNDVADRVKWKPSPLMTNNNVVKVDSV

[9] = target: Endothelin receptor type B (Homo sapiens) (UniProt P24530); conditions: Compound concentration 10.0 uM
Endothelin receptor type B (Homo sapiens), sequence (P24530 whole entry): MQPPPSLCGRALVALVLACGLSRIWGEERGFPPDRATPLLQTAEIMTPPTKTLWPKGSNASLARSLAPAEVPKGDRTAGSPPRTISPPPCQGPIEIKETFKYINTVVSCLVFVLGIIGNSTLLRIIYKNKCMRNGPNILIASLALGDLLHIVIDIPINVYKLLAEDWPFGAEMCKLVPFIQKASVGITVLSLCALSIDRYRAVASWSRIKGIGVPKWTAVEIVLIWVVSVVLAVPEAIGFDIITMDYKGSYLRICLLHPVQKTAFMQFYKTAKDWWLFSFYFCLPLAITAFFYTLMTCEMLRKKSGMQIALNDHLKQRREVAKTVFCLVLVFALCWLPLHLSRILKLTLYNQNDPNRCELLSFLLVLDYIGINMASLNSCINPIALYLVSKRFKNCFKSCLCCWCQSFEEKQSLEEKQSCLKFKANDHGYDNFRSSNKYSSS
Description: ETB CEREP ligand profiling

[10] = target: Adrenergic receptor alpha-1 (Homo sapiens) (UniProt P35348+P25100+P35368); assay: a 1 CEREP ligand profiling; type: protein assay; conditions: Compound concentration 10.0 uM
[11] = target: Pituitary adenylate cyclase-activating polypeptide type I receptor (Homo sapiens) (UniProt P41586); conditions: Compound concentration 10.0 uM
Pituitary adenylate cyclase-activating polypeptide type I receptor (Homo sapiens), sequence (P41586 21-468 limits assumed): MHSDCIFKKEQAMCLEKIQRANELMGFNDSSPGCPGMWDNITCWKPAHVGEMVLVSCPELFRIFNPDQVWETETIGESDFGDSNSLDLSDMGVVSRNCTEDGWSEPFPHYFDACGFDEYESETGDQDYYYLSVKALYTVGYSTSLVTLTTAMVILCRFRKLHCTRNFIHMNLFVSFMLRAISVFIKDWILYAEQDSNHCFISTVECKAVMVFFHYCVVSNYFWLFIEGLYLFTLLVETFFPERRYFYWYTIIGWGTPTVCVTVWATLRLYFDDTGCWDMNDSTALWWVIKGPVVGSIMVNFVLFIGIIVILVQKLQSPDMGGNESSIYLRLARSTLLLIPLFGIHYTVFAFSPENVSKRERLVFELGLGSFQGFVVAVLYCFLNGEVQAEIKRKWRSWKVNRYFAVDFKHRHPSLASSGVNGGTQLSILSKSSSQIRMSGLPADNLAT
Description: PACAP CEREP ligand profiling

[12] = test system: Epidermal growth factor receptor (Homo sapiens), P00533 [G719C]; conditions: Compound concentration 1000.0 nM

Translocator protein (Rattus norvegicus), sequence (P16257 whole entry, looked up): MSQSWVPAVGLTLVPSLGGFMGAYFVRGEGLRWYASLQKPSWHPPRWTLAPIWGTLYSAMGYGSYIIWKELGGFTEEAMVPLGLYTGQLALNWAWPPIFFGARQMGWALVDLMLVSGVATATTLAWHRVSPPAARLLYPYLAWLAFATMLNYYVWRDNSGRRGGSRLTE
Endothelin-1 receptor (Homo sapiens), sequence (P25101 whole entry): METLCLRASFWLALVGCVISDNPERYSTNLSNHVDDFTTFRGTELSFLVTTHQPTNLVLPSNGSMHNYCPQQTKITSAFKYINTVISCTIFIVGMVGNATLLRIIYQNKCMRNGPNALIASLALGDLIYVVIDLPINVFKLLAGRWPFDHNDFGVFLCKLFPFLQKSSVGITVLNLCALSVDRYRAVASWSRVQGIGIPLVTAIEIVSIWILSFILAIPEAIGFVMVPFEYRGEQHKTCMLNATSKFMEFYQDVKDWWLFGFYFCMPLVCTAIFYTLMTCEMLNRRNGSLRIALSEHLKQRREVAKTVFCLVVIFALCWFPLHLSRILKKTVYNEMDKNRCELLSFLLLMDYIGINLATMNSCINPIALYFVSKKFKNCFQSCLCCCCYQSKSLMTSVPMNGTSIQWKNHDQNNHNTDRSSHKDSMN
Muscarinic acetylcholine receptor M5 (Homo sapiens), sequence (P08912 whole entry): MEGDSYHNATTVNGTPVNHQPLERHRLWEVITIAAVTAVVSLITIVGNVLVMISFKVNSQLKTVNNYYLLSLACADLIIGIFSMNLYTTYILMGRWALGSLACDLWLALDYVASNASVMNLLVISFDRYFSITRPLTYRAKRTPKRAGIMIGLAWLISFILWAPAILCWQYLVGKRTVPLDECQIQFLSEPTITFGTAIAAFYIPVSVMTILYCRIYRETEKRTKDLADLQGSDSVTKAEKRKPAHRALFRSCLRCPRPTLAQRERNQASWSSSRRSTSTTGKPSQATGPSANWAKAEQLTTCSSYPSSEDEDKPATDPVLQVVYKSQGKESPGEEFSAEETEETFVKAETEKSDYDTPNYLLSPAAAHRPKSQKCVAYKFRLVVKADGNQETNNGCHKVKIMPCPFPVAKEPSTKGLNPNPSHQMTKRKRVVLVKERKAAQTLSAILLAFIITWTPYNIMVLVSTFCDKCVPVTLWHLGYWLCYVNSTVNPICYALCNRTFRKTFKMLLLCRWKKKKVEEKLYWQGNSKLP

c1ccc(N2CCN(Cc3nc4ccccc4[nH]3)CC2)nc1 [ABT-724]
inactive: inhibition [1] < 10% | inhibition [2] < 10% | inhibition [3] < 10% | inhibition [4] < 10% | inhibition [5] < 10% | inhibition [6] < 10% | inhibition [7] 10% | inhibition [8] 51% | inhibition [9] < 10% | inhibition [10] 23% | inhibition [11] < 10%

CSc1cccnc1N1CCN(Cc2nc3ccccc3[nH]2)CC1 [A-769]
inactive: residual activity [12] 96%
